These results are taken from ChEMBL document CHEMBL1145366, “A new class of histamine H3 receptor antagonists derived from ligand based design” (Bioorg Med Chem Lett, 2007).

Experiment [1] has as its target T1, Histamine H3 receptor (Homo sapiens, UniProt Q9Y5N1). In words: Displacement of [3H](R)-alpha-methylhistamine from human histamine H3 receptor at 10 uM.
For experiment [2], the target named is T1, Histamine H3 receptor. Kind of experiment: Binding affinity to human histamine H3 receptor.
Experiment [3] concerns the target Histamine H3 receptor (Rattus norvegicus, UniProt Q9QYN8). In words: Binding affinity to rat histamine H3 receptor.
The target of experiment [4] is Histamine H1 receptor (Homo sapiens) (UniProt P35367). In words: Displacement of [3H]pyrilamine from human histamine H1 receptor at 10 uM. In general terms: In a radioligand displacement assay an active substance lowers the binding of a labelled ligand.
Experiment [5] addresses Histamine H2 receptor (Homo sapiens) (UniProt P25021). Kind of experiment: Displacement of [3H]tiotidine from human histamine H2 receptor at 10 uM.
Experiment [6] has as its target T1, Histamine H3 receptor. Kind of experiment: Inverse agonist activity at human histamine H3 receptor by GTP gammaS assay. Type of experiment: functional.

The structures appear in SMILES notation.

Sequence of Histamine H1 receptor (Homo sapiens) (P35367 whole entry): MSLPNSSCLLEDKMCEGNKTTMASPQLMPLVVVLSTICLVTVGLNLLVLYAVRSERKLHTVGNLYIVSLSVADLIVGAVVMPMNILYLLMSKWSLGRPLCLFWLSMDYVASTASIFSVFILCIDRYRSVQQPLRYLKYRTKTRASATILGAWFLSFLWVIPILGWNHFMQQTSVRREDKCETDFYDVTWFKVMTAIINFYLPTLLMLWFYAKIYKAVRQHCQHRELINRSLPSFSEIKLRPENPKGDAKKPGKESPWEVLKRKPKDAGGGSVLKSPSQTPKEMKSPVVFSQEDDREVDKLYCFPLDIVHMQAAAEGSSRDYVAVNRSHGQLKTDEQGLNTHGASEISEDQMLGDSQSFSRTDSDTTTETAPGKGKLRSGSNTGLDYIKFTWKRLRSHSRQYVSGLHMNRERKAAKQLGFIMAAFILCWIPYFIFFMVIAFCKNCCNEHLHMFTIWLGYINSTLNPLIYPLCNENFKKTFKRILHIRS
T1 sequence (Q9Y5N1 whole entry): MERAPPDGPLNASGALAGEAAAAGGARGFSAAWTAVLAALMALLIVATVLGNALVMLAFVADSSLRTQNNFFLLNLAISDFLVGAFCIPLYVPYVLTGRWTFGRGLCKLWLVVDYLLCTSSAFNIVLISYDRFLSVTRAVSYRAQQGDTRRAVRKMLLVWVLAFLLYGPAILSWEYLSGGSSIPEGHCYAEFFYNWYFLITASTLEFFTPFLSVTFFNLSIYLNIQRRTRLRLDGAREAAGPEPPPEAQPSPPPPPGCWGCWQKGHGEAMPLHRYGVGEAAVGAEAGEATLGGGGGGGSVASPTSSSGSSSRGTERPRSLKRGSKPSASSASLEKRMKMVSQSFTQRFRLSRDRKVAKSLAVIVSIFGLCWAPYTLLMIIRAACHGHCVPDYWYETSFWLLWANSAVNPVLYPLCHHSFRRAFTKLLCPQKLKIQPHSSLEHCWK
Sequence of Histamine H2 receptor (Homo sapiens) (P25021 whole entry): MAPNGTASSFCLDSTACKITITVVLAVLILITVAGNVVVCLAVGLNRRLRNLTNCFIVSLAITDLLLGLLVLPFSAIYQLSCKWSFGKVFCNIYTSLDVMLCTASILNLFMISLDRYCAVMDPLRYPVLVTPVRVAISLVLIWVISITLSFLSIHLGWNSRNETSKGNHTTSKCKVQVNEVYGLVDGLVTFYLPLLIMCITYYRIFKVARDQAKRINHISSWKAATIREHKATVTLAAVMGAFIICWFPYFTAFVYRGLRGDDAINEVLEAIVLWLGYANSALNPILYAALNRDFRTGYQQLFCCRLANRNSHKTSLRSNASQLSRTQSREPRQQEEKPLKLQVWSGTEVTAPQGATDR
Sequence of Histamine H3 receptor (Rattus norvegicus, UniProt Q9QYN8) (Q9QYN8 whole entry): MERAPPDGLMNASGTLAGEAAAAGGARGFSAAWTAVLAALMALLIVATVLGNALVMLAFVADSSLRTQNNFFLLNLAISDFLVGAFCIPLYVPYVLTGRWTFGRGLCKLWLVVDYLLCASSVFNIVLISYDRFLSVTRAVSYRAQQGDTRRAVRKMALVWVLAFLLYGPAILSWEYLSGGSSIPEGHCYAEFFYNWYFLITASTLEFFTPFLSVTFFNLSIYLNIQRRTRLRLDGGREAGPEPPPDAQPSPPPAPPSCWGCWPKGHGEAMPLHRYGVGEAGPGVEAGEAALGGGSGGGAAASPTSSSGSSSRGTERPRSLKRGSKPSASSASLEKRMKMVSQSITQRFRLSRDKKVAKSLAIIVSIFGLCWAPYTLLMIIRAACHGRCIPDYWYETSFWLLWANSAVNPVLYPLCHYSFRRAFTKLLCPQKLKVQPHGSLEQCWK

With `CCOC(=O)CCCOc1ccc(Nc2ncnc3ccccc23)c(CN(C)C)c1`, the Activity on Histamine H3 receptor [1] was determined as 28%.
For `COc1ccccc1COc1ccc(OCCCN2CCOCC2)cc1C(=O)N(C)C`, on Histamine H3 receptor [1], the Activity turned out to be 73.4%. Moreover, the Ki (in general, a measure of affinity in units of concentration, obtained from inhibition or displacement) at Histamine H3 receptor [2] was found to be 1390 nM.
`COc1ccccc1COc1ccc(OCCCN2CCCCC2)cc1C(=O)N(C)C` showed a Ki on Histamine H3 receptor [2] of 12 nM.
For the molecule `CN(C)C(=O)c1cc(OC2CCCCO2)ccc1OCc1ccccc1Cl` (stereo unspecified), the Activity at Histamine H3 receptor [1] worked out at 17%.
As for `CN(C)Cc1cc(OCCCN2CCCCC2)ccc1Nc1ncnc2ccccc12`, the Ki at Histamine H3 receptor [3] amounted to 9.8 nM; on Histamine H3 receptor [2] it was 0.3 nM. Besides, the Activity in experiment [4] is -2.5%; in experiment [5] it was 2.4%. For the same molecule, on Histamine H3 receptor [6], the EC50 (as a rule, the concentration that produces a half-maximal response) amounted to 0.2 nM.
In the case of `CN(C)CCCOc1ccc(Oc2ncnc3ccccc23)c(C(=O)N(C)C)c1`, on Histamine H3 receptor [2], affinity was put at a Ki of 1020 nM.
Consider `CN(C)CCCOc1ccc(Nc2ncnc3ccccc23)c(CN(C)C)c1`, for which the Activity is -15% in experiment [4] and -2% in experiment [5]. For the same molecule, the inhibition constant (Ki) at Histamine H3 receptor [2] is 18 nM.
In turn, `CN(C)CCCOc1ccc(OCc2ccccc2Cl)c(CN(C)C)c1` showed an inhibition constant (Ki) on Histamine H3 receptor [2] of 135 nM.
For the molecule `CN(C)Cc1cc(O)ccc1Nc1ncnc2ccccc12`, the Activity on Histamine H3 receptor [1] is 11.6%.
Consider `CN(C)C(=O)c1cc(OCCCN2CCOCC2)ccc1OCc1ccccc1Cl`, for which the inhibitory constant (Ki) on Histamine H3 receptor [2] amounted to 1100 nM.
Same read-out and setting: with `CC(C)N1CCC(Oc2ccc(OCc3ccccc3Cl)c(CN(C)C)c2)C1` (stereo unspecified) the figure was 88 nM; with `CN(C)C(=O)c1cc(OCCC2CCCN2C)ccc1OCc1ccccc1Cl` (stereo unspecified), 1810 nM.
Consider `CN(C)C(=O)c1cc(OCc2ccc(F)cc2)ccc1OCc1ccccc1Cl`, for which, on Histamine H3 receptor [1], the Activity worked out at 33%.
For the molecule `CN(C)Cc1cc(OCC2CCCN(C)C2)ccc1OCc1ccccc1Cl` (stereo unspecified), the affinity on Histamine H3 receptor [2] corresponds to a Ki of 150 nM.
Take `CN(C)C(=O)c1cc(OCCCN2CCCCC2)ccc1OCc1ccccc1Cl`: the Activity in experiment [4] was determined as 8%. On Histamine H3 receptor [2], the inhibition constant Ki worked out at 47 nM.
Take `CN(C)Cc1cc(OCCCN2CCCCC2)ccc1OCc1ccccc1Cl`: the inhibition constant (Ki) on Histamine H3 receptor [2] amounted to 2.4 nM.
As for `COC(=O)c1ccc(COc2ccc(Nc3ncnc4ccccc34)c(CN(C)C)c2)cc1`, at Histamine H3 receptor [1], the Activity is 31%.
On to `CN(C)Cc1cc(OCCCCl)ccc1Nc1ncnc2ccccc12`, for which the Activity at Histamine H3 receptor [1] worked out at 49%.
